From EPA's ToxValDB 9.5
Converted amounts (≈) assume the structure as drawn.

Key:
Equus caballus [1] = assay: ALD; higher = less toxic; details: acute; oral; unspecified; mortality
Canidae = details: Dog Other
Equus caballus [2] = details: acute; oral; unspecified; mortality
Meleagris sp. = details: chronic/long-term; duration: 16 weeks; oral; feed; M/F; no effects
Gallus gallus = details: subchronic; duration: 13 weeks; M/F; growth
Numida meleagris = details: subchronic; duration: 35 days; oral; feed; no effects
Danio rerio = details: acute; duration: 96 hours; mortality
Tagia sp. = details: acute; duration: 14 days; mortality
Phasianus sp. = details: subchronic; duration: 35 days; oral; feed; food consumption
Coturnix coturnix = details: acute; oral; mortality
Anas platyrhynchos = details: for LC50: short-term, oral, feed, mortality
Bird = details: acute; oral; unspecified; mortality
Colinus virginianus = details: acute, oral, mortality
Mus musculus = details: acute; oral; F; mortality
Apis mellifera = details: acute; duration: 48 hours; dermal; mortality
Gasterosteus aculeatus = details: acute; duration: 96 hours; mortality
Daphnia magna = details: chronic/long-term; duration: 21 days; reproduction
Aphidius rhopalosiphi = assay: LR50; higher = less toxic; details: acute; duration: 48 hours; mortality
Coturnix japonica = details: reproduction developmental
Sus scrofa = details: acute; oral; Not specified; mortality
[3] = chronic, duration: 2 years, clinical chemistry

For `CC[C@@H](C(=O)[C@@H](C)[C@@H](O)[C@H](C)CCc1ccc(C)c(O)c1C(=O)[O-])[C@H]1O[C@](CC)([C@H]2CC[C@](O)(CC)[C@H](C)O2)C[C@@H]1C.[Na+]` [Lasalocid sodium], the ALD (Equus caballus [1]) was 15 mg/kg, the LEL (Canidae; repeat dose other, oral, diet, clinical signs) was 5 mg/kg-day and the LD50 (Equus caballus [2]) was 15 mg/kg. The LEL (Meleagris sp.) was 375 mg/kg, the LEL (Gallus gallus) was 225 mg/kg-day and the LEL (Numida meleagris) was 240 mg/kg. It also gave an LC50 (Danio rerio) of 2.5 mg/L, an NOEL (Rattus norvegicus; chronic, duration: 2 years, oral, M, organ weight) of 0.5 mg/kg-day and an NOEL (Oryctolagus sp.; developmental, duration: 23 days, oral, gavage, F, New Zealand, development) of 0.5 mg/kg-day. The LC50 (Tagia sp.) was 71.8 mg/kg and the LEL (Phasianus sp.) was 180 mg/kg.
`CCOP(=S)(OCC)Oc1nc(Cl)c(Cl)cc1Cl` [Chlorpyrifos] was tested, and the NOAEL (Canidae; [3]) was 0.1 mg/kg-day, the LD50 (Coturnix coturnix) was 13.3 mg/kg and the NOEC (Anas platyrhynchos; reproductive, reproduction) was 2.88 mg/kg-day. It also gave an LC50 (Anas platyrhynchos) of 71 mg/kg-day, an LD50 (Bird) of 122 mg/kg and an LD50 (Colinus virginianus; duration: 1 hours) of 75 mg/kg. For the same compound, the NOAEL (Rattus norvegicus; acute, clinical chemistry) was 0.5 mg/kg-day, the NOAEL (Rattus norvegicus; [3]) was 0.1 mg/kg-day and the NOAEL (Rattus norvegicus; reproduction developmental) was 1 mg/kg-day. The NOAEL (Rattus norvegicus; reproduction developmental, clinical chemistry) was 0.1 mg/kg-day and the LD50 (Mus musculus) was 64 mg/kg.
`CCOC(=O)CC(SP(=S)(OC)OC)C(=O)OCC` (stereo not drawn) [Malathion] gave an LD50 (Apis mellifera) of 0.16 µg/piece, an LC50 (Gasterosteus aculeatus) of 0.022 mg/L (≈ 0.0666 µM) and an NOEC (Daphnia magna) of 6e-05 mg/L. The NOAEL (Rattus norvegicus; chronic, duration: 2 years, neurology) was 29 mg/kg-day, the NOAEL (Rattus norvegicus; subchronic, duration: 90 days, neurology) was 34 mg/kg-day and the NOEC (Oncorhynchus mykiss; chronic/long-term, duration: 97 days, morphology) was 0.021 mg/L. For the same compound, the LC50 (Tagia sp.) was 613 mg/kg and the LR50 (Aphidius rhopalosiphi) was 0.0612 g/ha.
In the case of `O=c1oc2ccccc2c(O)c1C1CC(c2ccc(-c3ccccc3)cc2)Cc2ccccc21` (stereo not drawn) [Difenacoum], the NOEC (Coturnix japonica) is reported as greater than 0.01 mg/kg-day, the LD50 (Canidae; acute, oral, mortality) is reported as 50 mg/kg-day and the LD50 (Sus scrofa) is reported as 80 mg/kg-day. It also gave an LC50 (Anas platyrhynchos) of 3.5 mg/kg-day, an LD50 (Colinus virginianus) of 56 mg/kg-day and an LD50 (Rattus norvegicus; acute, oral, mortality) of 1.8 mg/kg-day. It also gave an LC50 (Oncorhynchus mykiss; acute, duration: 96 hours, mortality) of 0.064 mg/L (≈ 0.144 µM) and an NOAEL (Oryctolagus sp.; reproduction developmental, hematological) of 0.005 mg/kg-day.
